Measured values from patent publication US7384912B2, “Treatment of bone disorders with skeletal anabolic drugs” (Osteotrophin, LLC, priority 2002, dated 2008).
No end group written: not given here.

What was measured:
[1] = molecular target: T1, adenylate cyclase in human renal cortical membranes (RCM) (Homo sapiens, UniProt Q03431); assay: Adenylate cyclase assay in human kidney membranes; format: biochemical; conditions: both membrane preparations (RCM and SaOS-2 membranes)
T1 sequence (Q03431 27-593): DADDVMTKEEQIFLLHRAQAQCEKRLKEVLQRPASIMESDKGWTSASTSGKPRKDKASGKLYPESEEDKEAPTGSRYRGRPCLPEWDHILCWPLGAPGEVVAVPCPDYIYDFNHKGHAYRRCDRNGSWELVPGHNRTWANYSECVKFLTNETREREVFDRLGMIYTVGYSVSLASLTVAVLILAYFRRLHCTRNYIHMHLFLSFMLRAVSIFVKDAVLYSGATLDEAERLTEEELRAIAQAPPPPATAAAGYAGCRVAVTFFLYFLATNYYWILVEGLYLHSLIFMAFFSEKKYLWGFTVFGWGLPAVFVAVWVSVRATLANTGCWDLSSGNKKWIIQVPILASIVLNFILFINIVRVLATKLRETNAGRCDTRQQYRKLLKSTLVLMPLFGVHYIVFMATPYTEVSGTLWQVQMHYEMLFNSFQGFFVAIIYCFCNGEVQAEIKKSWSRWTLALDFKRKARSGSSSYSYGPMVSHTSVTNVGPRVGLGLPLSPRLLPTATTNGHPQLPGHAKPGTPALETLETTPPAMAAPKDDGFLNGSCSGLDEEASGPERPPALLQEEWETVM
Description: (§1) Therefore, dose response curves for each peptide were generated at 30° C. for 10 min in human kidney and 30° C. for 30 min in SaOS-2 membranes. As with the intact cell adenylate cyclase assays, kidney and bone cell membrane adenlyate cyclase assays were performed under binding assay conditions. Results are expresses as percentage of maximal cAMP stimulation in order to compare peptide dose responses from different experiments.
(§2) Statistical differences were assessed by paired and unpaired two-tailed Student's t test.

[2] = system: adenylate cyclase in SaOS-2 membranes; assay: Adenylate cyclase assay in SaOS-2 cell membranes; format: biochemical, human; conditions: 30° C., 30 min
Description: as §1, §2

[3] = system: adenylate cyclase in SaOS-2 intact cells; assay: Adenylate cyclase assay in SaOS-2 intact cells; format: cell-based, human; conditions: 15° C., 60 min
Description: Adenylate cyclase-stimulating activity was examined in confluent SAOS-2 cells as previously described for ROS 17/2.8 cells (Merendino et al., Science 231:388-390, (1986)), with the following modification. The intact cell assay was conducted at 15° C., the same conditions employed for binding to intact SaOS-2 cells (vide supra). […] Dose response curves for each peptide were thus generated using 60 min incubations at 15° C. under binding assay conditions.
as §2

[4] = system: ovariectomized (OVX) rats; assay: Body weight, serum chemistries, kidney calcium and deaths in ovariectomized rats
Description: All studies were performed using virus- and antibody-negative female Sprague-Dawley rats from Harlan Sprague-Dawley (Indianapolis, Ind.). All rats underwent sham ovariectomy or ovariectomy at 5 months of age. Studies began at six months of age, one month following ovariectomy or sham operation. Rats were maintained on a diet containing 0.5% calcium and 0.4% phosphorus. The light cycle was 12 hours.
The protocol employed is described in schematic form in Table IV. Animals were randomly assigned to 17 groups of 10 as described in the Table. […] For the peptide-treated animals, the peptide was administered daily, subcutaneously at a dose of 40 μg/kg/day, in the vehicle described above. For vehicle-treated animals, vehicle alone was administered in an identical fashion.
Serum and urine chemistries as described in Table XI were performed using standard autoanalyser methods (Boehringer-Mannheim-Hitachi, Indianapolis, Ind.). Kidney calcium content was determined following extraction of whole kidneys in 5% trichloroacetic acid, followed by calcium measurement by calcium analyzer (Calcette, Midfield, Mass.).

[5] = system: adenylate cyclase in canine renal cortical membranes (CRCM); assay: Canine renal cortical membrane adenylate cyclase assay, standard assay; format: biochemical; conditions: 30 min, 30° C.
Description: Results are expressed as the percent increment in adenylate cyclase activity in tubes containing the peptides as compared with tubes containing vehicle only.

[6] = system: adenylate cyclase in highly purified canine renal membranes; assay: Canine renal adenylate cyclase assay under binding assay conditions; format: biochemical; conditions: 20° C., 20 min, with bacitracin
Description: Adenylate cyclase-stimulating activity of both peptides was also examined using highly purified 32% interface membranes. Incubation was carried out under binding conditions at 20° C. for 20 min in the presence of the protease inhibitor, bacitracin (200 μg/ml). All other aspects of this assay were identical to the standard assay.

[7] = molecular target: T2, PTH/PTHrP receptors in canine renal membranes (Canis lupus familiaris, UniProt Q9TU31); assay: Competition binding to canine renal cortical membranes; conditions: Scatchard analysis of equilibrium binding data
T2 construct: The renal cortex from adult mongrel dogs was homogenized; from tissue; host or cells: renal cortex of adult mongrel dogs, purified membranes
T2 sequence (Q9TU31 29-595): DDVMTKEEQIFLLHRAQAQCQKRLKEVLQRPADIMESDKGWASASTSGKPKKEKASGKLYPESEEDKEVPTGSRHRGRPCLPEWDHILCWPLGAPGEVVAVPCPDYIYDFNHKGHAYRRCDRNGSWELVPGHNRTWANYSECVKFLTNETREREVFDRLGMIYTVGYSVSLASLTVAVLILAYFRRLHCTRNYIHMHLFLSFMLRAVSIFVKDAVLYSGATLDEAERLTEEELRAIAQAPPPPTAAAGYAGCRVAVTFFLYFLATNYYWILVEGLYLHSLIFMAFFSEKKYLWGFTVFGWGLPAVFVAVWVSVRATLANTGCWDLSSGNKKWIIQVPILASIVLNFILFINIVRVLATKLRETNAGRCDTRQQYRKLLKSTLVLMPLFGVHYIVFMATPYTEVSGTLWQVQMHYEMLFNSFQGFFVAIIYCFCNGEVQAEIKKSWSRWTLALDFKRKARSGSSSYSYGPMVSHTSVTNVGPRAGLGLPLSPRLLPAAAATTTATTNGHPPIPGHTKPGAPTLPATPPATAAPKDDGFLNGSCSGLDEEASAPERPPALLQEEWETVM
Description: The renal cortex from adult mongrel dogs was homogenized in 3 volumes (ml:gm) of 0.25 M sucrose containing 5.0 mM Tris HCl (pH 7.5), 1.0 mM EDTA, 6.5 KIU/ml aprotinin and 50 μg/ml bacitracin (SET buffer) at 4° C. with ten 30 second strokes of a motor-driven teflon pestle at 2000 RPM. The homogenate was filtered through one thickness of nylon mesh and centrifuged at 1475×g for 10 mm. The supernatant was discarded and the pellet resuspended in 1 volume of 2.0 M sucrose, 5 mM Tris HCl, 1 mM EDTA (pH 7.5), 6.5 KIU/ml aprotinin, and 50 μg/ml bacitracin. This was centrifuged at 13,300×g for 10 minutes and the pellet discarded. The supernatant was diluted 8-fold with ET buffer (5 mM Tris HCl, 1 mM EDTA (Ph 7.5), 6.5 KIU/ml aprotinin, and 50 μg/ml bacitracin) and centrifuged at 20,000×g for 15 min. […]
Binding assays were conducted in siliconized 12×75 mm borosilicate glass test tubes at 20° C. in a final volume of 0.2 ml. […] Radioactivity in both the pellet and supernatant was measured.
Dissociation constants (Kd) were determined by Scatchard analysis of the data obtained from competitive binding experiments using radioligand and increasing concentrations of unlabeled ligand. […] Statistical differences were assessed by paired Student's t test. […] Significance was determined using a partial F-test.

[8] = system: ovariectomized osteopenic rats; conditions: ovariectomized osteopenic rats (Vickery et al.); cited from earlier work

rat (r)PTH-(1-34) [rPTH-(1-34)]
more potent than hPTHrP-(1-36) in stimulating adenylate cyclase [1]: 10 fold
EC50 [2]: 0.09 ± 0.03 nM
EC50 [3]: 0.9 ± 0.1 nM

SVSEIQLLHDKGKHLASQERVEWLRKKLQDVHTA [SDZ PTH 893, Leu^8, Asp^10, Lys^11, Ala^16, Gln^18, Thr^33, Ala^34hPTH(1-34)]
treated animals that died during the study ([4]; 30 OVX rats per peptide, 40 μg/kg/day, six month study): 13%
renal calcium content, in words ([4]; rat, in vivo): marked increases in renal calcium content

bovine (b)PTH-(1-34) [bPTH-(1-34)]
EC50 [2]: 0.5 ± 0.06 nM
EC50 [3]: 1.2 ± 0.1 nM
potency relative to PTHrP-(1-36) [5]: greater than 6 fold
adenylate cyclase stimulation greater than for PTHrP-(1-36) [6]: 15 fold

[Nle^8,18,Tyr^34]hPTH-(1-34)amide
Bmax [7]: 2.73±0.31 pmol/mg protein

[MAP1-10]22-31 hPTHrP-(1-34)NH2
anabolic activity versus parent peptide [8]: greater anabolic activity than the parent peptide
